# Columns and labels:
# human Nav1.7 = biological target: T1, human Nav1.7 (Homo sapiens, UniProt Q15858); test: PatchXpress sodium current measurement, inactivated state block, Nav1.7; assay type: cell-based; conditions: channels stably expressed in HEK 293 cells, double-pulse protocol, 22° C., read-out: potency for the Nav 1.7 sodium ion channel (1.7=)
# T1 construct: expressed in transfected cells
# Protocol: (§1) Cell Based Assays for Nav 1.7 and Nav 1.5 Activity
# (§2) Compounds were tested on human Nav1.7 and Nav1.5 channels stably expressed in HEK 293 cells.
# (§3) Sodium Current Measurements on the PatchXpress 7000:
# (§4) To measure inactivated state block of sodium channels, test compounds were characterized in an automated PatchXpress® assay (Molecular Devices) using a double-pulse protocol on human Nav1.7 and Nav1.5 channels stably expressed in HEK 293 cells. Cells were held at a potential 20 mV negative to the potential at which ˜50% of the channels are inactivated. A 8000 ms pre-pulse 7 mV positive to the potential at which ˜50% of the channels are inactivated was given followed by a hyperpolarizing 2 ms pulse to −120 mV and a 20 ms test pulse to −20 mV. The protocol was applied to cells in the absence, presence of compound and after washout. The temperature of PatchXpress® instruments was maintained at 22° C. The following recording solutions were used. Internal solution (mM): 30 CsCl, 5 HEPES, 10 EGTA, 120 CsF, 5 NaF, 2 MgCl2, pH 7.3 with CsOH. External solution (mM): 120 NMDG, 40 NaCl, 1 KCl, 0.5 MgCl2, 5 HEPES, 2.7 CaCl2, pH 7.5 with NMDG-OH. Estimated IC50 values were calculated based on at least two compound concentrations tested. For all electrophysiology experiments, offline analysis was used to correct for current rundown and to determine percent inhibition as a function of drug concentration. IC50 values were determined by fitting to the Hill equation.
# human Nav1.5 = biological target: T2, human Nav1.5 (Homo sapiens, UniProt Q14524); test: PatchXpress sodium current measurement, inactivated state block, Nav1.5; assay type: cell-based; conditions: determined by PatchXpress measurement, HEK 293 cells
# T2 construct: expressed in transfected cells
# T2 sequence (Q14524 whole entry): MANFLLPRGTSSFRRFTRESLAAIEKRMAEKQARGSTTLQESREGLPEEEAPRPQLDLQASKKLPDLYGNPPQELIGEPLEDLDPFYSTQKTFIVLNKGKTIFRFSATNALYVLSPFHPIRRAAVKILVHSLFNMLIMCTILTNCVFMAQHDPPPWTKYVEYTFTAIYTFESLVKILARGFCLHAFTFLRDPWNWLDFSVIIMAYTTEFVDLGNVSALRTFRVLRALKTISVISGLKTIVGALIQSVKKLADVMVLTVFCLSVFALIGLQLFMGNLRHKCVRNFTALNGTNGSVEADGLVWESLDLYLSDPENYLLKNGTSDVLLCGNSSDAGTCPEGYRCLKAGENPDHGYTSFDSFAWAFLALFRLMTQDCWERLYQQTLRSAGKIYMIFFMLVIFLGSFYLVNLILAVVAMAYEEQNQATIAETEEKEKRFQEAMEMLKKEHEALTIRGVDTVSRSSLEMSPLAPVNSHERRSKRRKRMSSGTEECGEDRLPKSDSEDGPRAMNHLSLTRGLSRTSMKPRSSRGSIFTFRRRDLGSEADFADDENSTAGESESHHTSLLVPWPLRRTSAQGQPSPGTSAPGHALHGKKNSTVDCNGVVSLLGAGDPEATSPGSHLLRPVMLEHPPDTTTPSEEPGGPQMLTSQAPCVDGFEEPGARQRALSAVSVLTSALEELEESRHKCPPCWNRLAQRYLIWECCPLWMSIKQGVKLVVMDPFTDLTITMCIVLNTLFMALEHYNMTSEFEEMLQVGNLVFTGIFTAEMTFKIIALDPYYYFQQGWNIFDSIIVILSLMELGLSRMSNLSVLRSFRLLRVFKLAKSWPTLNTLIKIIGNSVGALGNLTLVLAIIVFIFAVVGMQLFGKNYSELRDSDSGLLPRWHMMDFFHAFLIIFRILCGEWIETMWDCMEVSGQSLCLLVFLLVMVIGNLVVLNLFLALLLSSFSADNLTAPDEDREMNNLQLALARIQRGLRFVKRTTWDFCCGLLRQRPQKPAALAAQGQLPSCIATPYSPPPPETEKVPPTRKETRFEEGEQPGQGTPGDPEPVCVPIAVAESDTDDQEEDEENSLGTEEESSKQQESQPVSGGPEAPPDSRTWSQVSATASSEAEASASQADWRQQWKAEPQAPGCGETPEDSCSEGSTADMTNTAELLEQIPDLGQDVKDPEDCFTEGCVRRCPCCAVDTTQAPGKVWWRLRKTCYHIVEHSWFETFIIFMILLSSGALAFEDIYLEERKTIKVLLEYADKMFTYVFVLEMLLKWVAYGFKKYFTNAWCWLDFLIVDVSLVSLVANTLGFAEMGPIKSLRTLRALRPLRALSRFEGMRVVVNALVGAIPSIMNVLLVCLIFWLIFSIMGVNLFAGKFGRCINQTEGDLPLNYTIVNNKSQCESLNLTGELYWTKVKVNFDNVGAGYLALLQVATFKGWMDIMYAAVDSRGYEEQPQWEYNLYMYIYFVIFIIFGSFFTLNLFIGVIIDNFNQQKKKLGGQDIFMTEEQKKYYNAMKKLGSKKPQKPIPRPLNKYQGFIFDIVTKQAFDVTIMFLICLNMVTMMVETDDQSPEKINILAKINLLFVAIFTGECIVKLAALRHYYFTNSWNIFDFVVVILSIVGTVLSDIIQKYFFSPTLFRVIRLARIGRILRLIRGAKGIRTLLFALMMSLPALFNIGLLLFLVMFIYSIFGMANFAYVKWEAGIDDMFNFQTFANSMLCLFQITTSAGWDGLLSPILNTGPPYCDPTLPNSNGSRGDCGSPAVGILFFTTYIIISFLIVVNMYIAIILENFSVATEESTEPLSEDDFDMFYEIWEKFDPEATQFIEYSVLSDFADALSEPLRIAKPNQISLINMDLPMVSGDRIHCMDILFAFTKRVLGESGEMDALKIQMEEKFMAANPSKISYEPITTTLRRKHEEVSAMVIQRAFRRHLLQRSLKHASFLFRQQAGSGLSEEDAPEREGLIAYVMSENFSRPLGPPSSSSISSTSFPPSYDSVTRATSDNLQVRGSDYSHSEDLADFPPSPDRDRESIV
# Protocol: as §1, §2, §3, §4
# T1 sequence (Q15858 whole entry): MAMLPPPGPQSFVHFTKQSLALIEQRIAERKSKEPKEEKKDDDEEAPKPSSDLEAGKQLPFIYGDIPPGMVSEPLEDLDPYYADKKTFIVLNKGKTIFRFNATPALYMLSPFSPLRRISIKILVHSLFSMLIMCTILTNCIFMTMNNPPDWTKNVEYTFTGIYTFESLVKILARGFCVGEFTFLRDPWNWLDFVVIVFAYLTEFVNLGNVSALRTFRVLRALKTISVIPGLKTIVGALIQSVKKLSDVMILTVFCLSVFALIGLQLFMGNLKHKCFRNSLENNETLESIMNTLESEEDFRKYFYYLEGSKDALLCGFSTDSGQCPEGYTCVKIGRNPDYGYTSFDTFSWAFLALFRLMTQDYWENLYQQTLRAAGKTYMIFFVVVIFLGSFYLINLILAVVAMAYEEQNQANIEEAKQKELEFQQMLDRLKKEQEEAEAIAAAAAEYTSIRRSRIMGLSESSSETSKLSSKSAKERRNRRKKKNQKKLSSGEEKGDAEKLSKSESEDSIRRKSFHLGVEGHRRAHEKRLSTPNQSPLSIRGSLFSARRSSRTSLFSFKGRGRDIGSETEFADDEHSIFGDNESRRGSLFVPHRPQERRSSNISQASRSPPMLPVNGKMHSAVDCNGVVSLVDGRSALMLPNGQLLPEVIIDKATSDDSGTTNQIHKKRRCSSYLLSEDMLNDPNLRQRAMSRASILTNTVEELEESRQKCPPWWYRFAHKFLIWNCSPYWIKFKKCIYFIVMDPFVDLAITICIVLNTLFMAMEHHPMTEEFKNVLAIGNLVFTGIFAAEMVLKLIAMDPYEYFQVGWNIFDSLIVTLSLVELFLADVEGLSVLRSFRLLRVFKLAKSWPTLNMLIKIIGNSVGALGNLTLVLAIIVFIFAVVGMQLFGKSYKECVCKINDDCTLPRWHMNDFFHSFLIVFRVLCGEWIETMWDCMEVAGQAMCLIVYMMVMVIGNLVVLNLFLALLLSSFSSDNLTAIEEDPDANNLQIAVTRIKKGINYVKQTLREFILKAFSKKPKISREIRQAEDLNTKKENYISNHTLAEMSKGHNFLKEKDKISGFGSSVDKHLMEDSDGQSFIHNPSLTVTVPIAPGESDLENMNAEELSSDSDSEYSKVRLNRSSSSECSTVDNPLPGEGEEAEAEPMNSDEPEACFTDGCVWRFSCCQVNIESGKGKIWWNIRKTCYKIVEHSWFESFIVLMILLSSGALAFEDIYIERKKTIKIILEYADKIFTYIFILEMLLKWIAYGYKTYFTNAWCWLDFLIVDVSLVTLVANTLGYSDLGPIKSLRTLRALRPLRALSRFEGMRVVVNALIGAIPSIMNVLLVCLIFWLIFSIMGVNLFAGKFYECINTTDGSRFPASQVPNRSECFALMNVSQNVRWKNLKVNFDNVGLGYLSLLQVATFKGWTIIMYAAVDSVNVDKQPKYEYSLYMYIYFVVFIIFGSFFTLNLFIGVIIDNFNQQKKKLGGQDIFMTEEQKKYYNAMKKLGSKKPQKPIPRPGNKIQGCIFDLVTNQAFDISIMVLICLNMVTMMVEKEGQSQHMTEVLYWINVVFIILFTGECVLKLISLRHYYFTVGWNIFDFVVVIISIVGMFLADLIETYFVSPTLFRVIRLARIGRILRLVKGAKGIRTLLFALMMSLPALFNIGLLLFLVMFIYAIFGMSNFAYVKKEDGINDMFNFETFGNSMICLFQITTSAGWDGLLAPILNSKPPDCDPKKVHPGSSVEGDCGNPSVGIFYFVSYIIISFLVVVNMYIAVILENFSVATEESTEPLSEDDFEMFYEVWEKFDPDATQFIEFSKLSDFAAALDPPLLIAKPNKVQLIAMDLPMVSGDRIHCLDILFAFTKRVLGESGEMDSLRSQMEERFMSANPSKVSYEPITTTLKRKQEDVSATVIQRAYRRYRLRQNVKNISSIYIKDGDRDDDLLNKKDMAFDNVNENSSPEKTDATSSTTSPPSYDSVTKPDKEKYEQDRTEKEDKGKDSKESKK
Structure (SMILES),IC50 (human Nav1.7) [nM],ratio of Nav 1.5:Nav 1.7 potency (human Nav1.5)
"Cc1cccc([C@@H](C)n2c(=O)oc3cc(S(=O)(=O)Nc4cccc(F)n4)c(F)cc32)c1CN [Ex19-1, 3-{(1R)-1-[2-(aminomethyl)-3-methylphenyl]ethyl}-5-fluoro-N-(6-fluoropyridin-2-yl)-2-oxo-2,3-dihydro-1,3-benzoxazole-6-sulfonamide]",9,603
"C[C@H](c1cccc(CCCN)c1)n1c(=O)oc2cc(S(=O)(=O)Nc3cccc(F)n3)c(F)cc21 [Ex22-1, 3-{(1R)-1-[3-(3-aminopropyl)phenyl]ethyl}-5-fluoro-N-(6-fluoropyridin-2-yl)-2-oxo-2,3-dihydro-1,3-benzoxazole-6-sulfonamide]",55,380
"Cc1cc2c(cc1S(=O)(=O)Nc1cccc(F)n1)oc(=O)n2[C@H](C)c1ccccc1C1CCNCC1 [Ex18-3, (R)—N-(6-Fluoropyridin-2-yl)-5-methyl-2-oxo-3-(1-(2-(piperidin-4-yl)phenyl)ethyl)-2,3-dihydrobenzo[d]oxazole-6-sulfonamide]",13,233
"O=c1oc2cc(S(=O)(=O)Nc3cccc(F)n3)c(F)cc2n1Cc1cccc2c1CNCC2F (single isomer, unassigned; enantiomer 2) [Ex5-11, (S or R)-5-fluoro-N-(6-fluoropyridin-2-yl)-3-[(4-fluoro-1,2,3,4-tetrahydroisoquinolin-8-yl)methyl]-2-oxo-2,3-dihydro-1,3-benzoxazole-6-sulfonamide (enantiomer 2)]",727,54
"C[C@H](c1cccc(C#CC2CCCN2)c1)n1c(=O)oc2cc(S(=O)(=O)Nc3cccc(F)n3)c(F)cc21 (stereo partly drawn) [Ex21-10, 5-fluoro-N-(6-fluoropyridin-2-yl)-2-oxo-3-{(1R)-1-[3-(pyrrolidin-2-ylethynyl)phenyl]ethyl}-2,3-dihydro-1,3-benzoxazole-6-sulfonamide]",342,88
"C[C@H](c1cccc(CN)c1)n1c(=O)oc2cc(S(=O)(=O)Nc3cccc(F)n3)c(F)cc21 [Ex19-5, 3-{(1R)-1-[3-(aminomethyl)phenyl]ethyl}-5-fluoro-N-(6-fluoropyridin-2-yl)-2-oxo-2,3-dihydro-1,3-benzoxazole-6-sulfonamide]",482,96
"C[C@H](c1ccccc1C1=CCC(N)CC1)n1c(=O)oc2cc(S(=O)(=O)Nc3cccc(F)n3)c(F)cc21 (stereo partly drawn) [Ex7-6, 3-{(1R)-1-[2-(4-aminocyclohex-1-en-1-yl)phenyl]ethyl}-5-fluoro-N-(6-fluoropyridin-2-yl)-2-oxo-2,3-dihydro-1,3-benzoxazole-6-sulfonamide]",460,123
"C[C@H](c1cccc(C#C[C@@H]2CCCC[C@@H]2N)c1)n1c(=O)oc2cc(S(=O)(=O)Nc3cccc(F)n3)c(F)cc21 [Ex21-17, 3-[(1R)-1-(3-{[(1S,2S)-2-aminocyclohexyl]ethynyl}phenyl)ethyl]-5-fluoro-N-(6-fluoropyridin-2-yl)-2-oxo-2,3-dihydro-1,3-benzoxazole-6-sulfonamide]",68,41
"CCN(CC)CC#Cc1cccc([C@@H](C)n2c(=O)oc3cc(S(=O)(=O)Nc4cccc(F)n4)c(F)cc32)c1 [Ex21-15, 3-[(1R)-1-{3-[3-(diethylamino)prop-1-yn-1-yl]phenyl}ethyl]-5-fluoro-N-(6-fluoropyridin-2-yl)-2-oxo-2,3-dihydro-1,3-benzoxazole-6-sulfonamide]",516,58
Cc1c(CCN)cccc1[C@@H](C)n1c(=O)oc2cc(S(=O)(=O)Nc3cccc(F)n3)c(F)cc21 [Ex19-12],154,195
"Cc1cc2c(cc1S(=O)(=O)Nc1cccc(F)n1)oc(=O)n2[C@H](C)c1cccc(Br)c1C [Ex18-7, 3-[(1R)-1-(3-bromo-2-methylphenyl)ethyl]-N-(6-fluoropyridin-2-yl)-5-methyl-2-oxo-2,3-dihydro-1,3-benzoxazole-6-sulfonamide]",69,90
"C[C@H](c1cccc2c1CNCC2)n1c(=O)oc2cc(S(=O)(=O)Nc3ccc(F)cn3)c(F)cc21.Cl [Ex15-5, (R)-5-Fluoro-N-(5-fluoropyridin-2-yl)-2-oxo-3-(1-(1,2,3,4-tetrahydroisoquinolin-8-yl)ethyl)-2,3-dihydrobenzo[d]oxazole-6-sulfonamide hydrochloride]",535,108
"C[C@H](c1cccc(C2CCCN2)c1)n1c(=O)oc2cc(S(=O)(=O)Nc3cccc(F)n3)c(F)cc21 (stereo partly drawn) [Ex20-3, 5-fluoro-N-(6-fluoropyridin-2-yl)-2-oxo-3-{(1R)-1-[3-(pyrrolidin-2-yl)phenyl]ethyl}-2,3-dihydro-1,3-benzoxazole-6-sulfonamide]",243,218
"Cc1cc2c(cc1S(=O)(=O)Nc1cccc(F)n1)oc(=O)n2Cc1cccc2c1CC(N)CC2 (single isomer, unassigned) [Ex17-6, (S or R)-3-[(7-amino-5,6,7,8-tetrahydronaphthalen-1-yl)methyl]-N-(6-fluoropyridin-2-yl)-5-methyl-2-oxo-2,3-dihydro-1,3-benzoxazole-6-sulfonamide]",12,178
"C[C@H](c1ccccc1C#CC1(N)CCCCC1)n1c(=O)oc2cc(S(=O)(=O)Nc3cccc(F)n3)c(F)cc21 [Ex8-6, 3-[(1R)-1-{2-[(1-aminocyclohexyl)ethynyl]phenyl}ethyl]-5-fluoro-N-(6-fluoropyridin-2-yl)-2-oxo-2,3-dihydro-1,3-benzoxazole-6-sulfonamide]",49,95
"Cc1cc2c(cc1S(=O)(=O)Nc1cccc(F)n1)oc(=O)n2[C@H](C)c1ccccc1C1=CCNCC1 [Ex17-8, N-(6-fluoropyridin-2-yl)-5-methyl-2-oxo-3-{(1R)-1-[2-(1,2,3,6-tetrahydropyridin-4-yl)phenyl]ethyl}-2,3-dihydro-1,3-benzoxazole-6-sulfonamide]",6,1452
"Cc1cc2c(cc1S(=O)(=O)Nc1cccc(F)n1)oc(=O)n2[C@H](C)c1cccc(C)c1C#C[C@H]1CCCC[C@H]1N [Ex21-26, 3-[(1R)-1-(2-{[(1R,2R)-2-aminocyclohexyl]-ethynyl}-3-methylphenyl)ethyl]-N-(6-fluoropyridin-2-yl)-5-methyl-2-oxo-2,3-dihydro-1,3-benzoxazole-6-sulfonamide]",16,192
"C[C@H](c1cccc2c1CNCC2)n1c(=O)oc2cc(S(=O)(=O)Nc3cccc(F)n3)c(F)cc21.Cl [Ex3-5, (R)-5-fluoro-N-(6-fluoropyridin-2-yl)-2-oxo-3-(1-(1,2,3,4-tetrahydroisoquinolin-8-yl)ethyl)-2,3-dihydrobenzo[d]oxazole-6-sulfonamide hydrochloride]",99,158
"CC(N)C#Cc1cccc([C@@H](C)n2c(=O)oc3cc(S(=O)(=O)Nc4cccc(F)n4)c(F)cc32)c1 (stereo partly drawn) [Ex21-5, 3-{(1R)-1-[3-(3-aminobut-1-yn-1-yl)phenyl]ethyl}-5-fluoro-N-(6-fluoropyridin-2-yl)-2-oxo-2,3-dihydro-1,3-benzoxazole-6-sulfonamide]",885,34
"Cc1cc2c(cc1S(=O)(=O)Nc1cccc(F)n1)oc(=O)n2[C@H](C)c1cccc(C)c1C#C[C@@H]1CCCC[C@@H]1N [Ex21-25, 3-[(1R)-1-(2-{[(1S,2S)-2-aminocyclohexyl]-ethynyl}-3-methylphenyl)ethyl]-N-(6-fluoropyridin-2-yl)-5-methyl-2-oxo-2,3-dihydro-1,3-benzoxazole-6-sulfonamide]",9,167
"C[C@H](c1cccc2c1CNCC2)n1c(=O)oc2cc(S(=O)(=O)Nc3cc(Cl)ccn3)c(F)cc21 [Ex16-8, N-(4-Chloropyridin-2-yl)-5-fluoro-2-oxo-3-[(1R)-1-(1,2,3,4-tetrahydroisoquinolin-8-yl)ethyl]-2,3-dihydro-1,3-benzoxazole-6-sulfonamide]",134,88
"Cl.NC1CCc2cccc(Cn3c(=O)oc4cc(S(=O)(=O)Nc5cccc(F)n5)c(F)cc43)c2C1 (single isomer, unassigned) [Ex13-4, (S or R)-3-((7-Amino-5,6,7,8-tetrahydronaphthalen-1-yl)methyl)-5-fluoro-N-(6-fluoropyridin-2-yl)-2-oxo-2,3-dihydrobenzo[d]oxazole-6-sulfonamide hydrochloride]",89,304
"C[C@H](c1ccccc1CN1CCCCC1)n1c(=O)oc2cc(S(=O)(=O)Nc3cccc(F)n3)c(F)cc21 [Ex9-3, 5-fluoro-N-(6-fluoropyridin-2-yl)-2-oxo-3-{(1R)-1-[2-(piperidin-1-ylmethyl)phenyl]ethyl}-2,3-dihydro-1,3-benzoxazole-6-sulfonamide]",300,68

# — patent publication US9624208B2, “Benzoxazolinone compounds with selective activity in voltage-gated sodium channels” (Merck Sharp & Dohme Corp., priority 2012, dated 2017)
